Measurements as given in PubChem BioAssay AID1845206 (Molecular Pharmacology Branch, DTP, NCI, 2023).

System: NCI-H1618 multicellular tumor spheroid viability
Test: Anticancer human tumor NCI-H1618 cell line growth inhibition;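 note: spheroids exposed to agents for 7 days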
Settings: for IC50: curve of first compound; for viability, T/C: stronger effect = lower value
Description: Multicellular complex tumor spheroid response to DNA repair inhibitors in combination with DNA-damaging drugs
This study explores the anticancer activities of DNA-damaging drugs and inhibitors of DNA damage repair, both as single agents and in combinations. Complex tumor spheroids comprised of malignant cells, endothelial cells and mesenchymal stem cells served as an in vitro model for human solid tumors. This model system incorporates physiologically relevant features and patient-derived or established malignant cell lines with clinically relevant genetic alterations from many tumor types. Twenty-six patient-derived or established malignant cell lines were evaluated representing sarcoma, melanoma, small cell lung cancer (SCLC), non-small cell lung cancer (NSCLC), as well as bladder, ovarian and pancreatic cancers. The concentration ranges selected for each drug and investigational agent were based upon clinically achievable concentrations if the clinical Cmax of the agent was known.
Compounds. The drugs and compounds olaparib (NSC753686), talazoparib (NSC767125), berzosertib (NSC777718), elimusertib (NSC800525), nedisertib (NSC802822), VX-984 (NSC792969), AZD-1390 (NSC803789), temozolomide (NSC362856), topotecan (NSC609699), trabectedin (NSC813783), staurosporine (NSC755774), and gemcitabine (NSC613327) were obtained from the National Cancer Institute (NCI) Developmental Therapeutics Program Chemical Repository. The FDA-approved anticancer drug set is available from the Developmental Therapeutics Program at https://dtp.cancer.gov/organization/dscb/obtaining/available_plates.htm. […] The stock solutions were prepared in dimethyl sulfoxide (DMSO, Sigma-Aldrich, St. Louis, MO, cat. D2650) at 400-fold the tested concentration and stored at -70 degrees C. Prior to their use, the stock solutions were diluted in fresh medium and the final DMSO concentration in the assay was 0.25% (v/v). All drugs and investigational agents were tested over a range starting from a high concentration at or near the clinical Cmax and decreasing in half-log increments. If the clinical Cmax for an agent had not been determined, the highest concentration tested was 10 microM.
Cell Lines. The patient-derived cancer cell (PDC) lines: 156681-154-R-J1-PDC, 283228-195-R-J1-PDC, 287954-098-R-J1-PDC, 292921-168-R-J2-PDC, 349418-098-R-PDC, 425362-245-T-J1-PDC, 556581-035-R-J1-PDC, and BL0293-F563-PDC were received from the NCI Patient-Derived Models Repository (PDMR, https://pdmr.cancer.gov). The established cell lines HS-SY-2 (RRID:CVCL_8719), MPNST, and SYO-1 (RRID:CVCL_7146) were obtained from the Sloan Kettering Institute. The alveolar soft parts sarcoma cell line ASPS-1 (RRID:CVCL_S738) was established at the NCI and grown from internal seed stocks. The following established cell lines were purchased from the American Type Culture Collection (ATCC, Manassas, VA): G-401 (ATCC, cat. CRL-1441, RRID:CVCL_0270), SW982 (ATCC, cat. HTB-93, RRID:CVCL_1734), VA-ES-BJ (ATCC, cat. CRL-2138, RRID:CVCL_1785), NCI-H719 (ATCC, cat. CRL-5837, RRID:CVCL_1582), NCI-H196 (ATCC, cat. CRL-5823, RRID:CVCL_1509), NCI-H841 (ATCC, cat. CRL-5845, RRID:CVCL_1595), NCI-H1618 (ATCC, cat. CRL-5879, RRID:CVCL_1480), NCI-H1876 (ATCC, cat. CRL-5902, RRID:CVCL_1503), DMS 114 (ATCC, cat. CRL-2066; RRID:CVCL_1174), NCI-H211 (ATCC, cat. CRL-5824; RRID:CVCL_1529), and SW 1271 (ATCC, cat. CRL-2177, RRID:CVCL_1716). The small cell lung cancer cell line COR-L88 was purchased from Sigma-Aldrich (cat. 92031917-1VL, RRID:CVCL_1141). The non-small cell lung cancer cell lines NCI-H226 (RRID:CVCL_1544) and NCI-H322M (RRID:CVCL_1557) were established at the NCI and grown from internal seed stocks. Pooled donor human umbilical vein endothelial cells (HUVEC, Lonza, cat. CC-2519) and human mesenchymal stem cells (hMSC, Lonza, cat. PT-2501) were purchased from Lonza (Walkersville, MD).
Cell Culture. All cells were maintained in an incubator at 37 degrees C and 5% CO2 with 95% humidity. […]

Q: What does the source list for `CNCc1ccc(-c2cc(-c3nc(-c4ccc(S(=O)(=O)C(C)C)cc4)cnc3N)on2)cc1` + CC[C@@]1(O)C(=O)OCc2c1cc1n(c2=O)Cc2cc3c(CN(C)C)c(O)ccc3nc2-1?
A: IC50 (second compound 0.003 µM): 187 nM; IC50 (second compound 0.00949 µM): < 9.49 nM; IC50 (second compound 0.03 µM): < 9.49 nM; IC50 (second compound 0.0949 µM): < 9.49 nM; IC50 (second compound 0.3 µM): < 9.49 nM; viability, T/C (second compound 0.003 µM, first compound 0.00949 µM): 95.1%; viability, T/C (second compound 0.003 µM, first compound 0.03 µM): 94%; viability, T/C (second compound 0.003 µM, first compound 0.0949 µM): 61.7%; viability, T/C (second compound 0.003 µM, first compound 0.3 µM): 44.8%; viability, T/C (second compound 0.003 µM, first compound 0.949 µM): 1.59%; viability, T/C (second compound 0.003 µM, first compound 3 µM): 0.23%; viability, T/C (second compound 0.00949 µM, first compound 0.00949 µM): 20.6%; viability, T/C (second compound 0.00949 µM, first compound 0.03 µM): 77.9%; viability, T/C (second compound 0.00949 µM, first compound 0.0949 µM): 34.5%; viability, T/C (second compound 0.00949 µM, first compound 0.3 µM): 1.73%; viability, T/C (second compound 0.00949 µM, first compound 0.949 µM): 0.75%; viability, T/C (second compound 0.00949 µM, first compound 3 µM): 0.62%; viability, T/C (second compound 0.03 µM, first compound 0.00949 µM): 1.33%; viability, T/C (second compound 0.03 µM, first compound 0.03 µM): 15.5%; viability, T/C (second compound 0.03 µM, first compound 0.0949 µM): 1.54%; viability, T/C (second compound 0.03 µM, first compound 0.3 µM): 1.41%; viability, T/C (second compound 0.03 µM, first compound 0.949 µM): 0.72%; viability, T/C (second compound 0.03 µM, first compound 3 µM): 0.23%; viability, T/C (second compound 0.0949 µM, first compound 0.00949 µM): 1.38%; viability, T/C (second compound 0.0949 µM, first compound 0.03 µM): 14%; viability, T/C (second compound 0.0949 µM, first compound 0.0949 µM): 1.35%; viability, T/C (second compound 0.0949 µM, first compound 0.3 µM): 1.36%; viability, T/C (second compound 0.0949 µM, first compound 0.949 µM): 0.81%; viability, T/C (second compound 0.0949 µM, first compound 3 µM): 0.45%; viability, T/C (second compound 0.3 µM, first compound 0.00949 µM): 1.25%; viability, T/C (second compound 0.3 µM, first compound 0.03 µM): 1.26%; viability, T/C (second compound 0.3 µM, first compound 0.0949 µM): 1.42%; viability, T/C (second compound 0.3 µM, first compound 0.3 µM): 1.51%; viability, T/C (second compound 0.3 µM, first compound 0.949 µM): 17.5%; viability, T/C (second compound 0.3 µM, first compound 3 µM): 0.43%
